Holding throughout (assay): Postemergence herbicidal activity in the greenhouse, visual weed control
Common to all, as to format: in vivo
Conditions in all cases: 21 DAA

Experiment [1] has as its system barnyardgrass (Echinochloa crus-galli; ECHCG). The protocol: (§1) Seeds of the desired test plant species were planted in 80% mineral soil/20% grit planting mixture, which typically has a pH of 7.2 and an organic matter content of about 2.9 percent, in plastic pots with a surface area of 128 square centimeters (cm^2). The growing medium was steam sterilized. The plants were grown for 7-19 days in a greenhouse with an approximate 14-hour (h) photoperiod which was maintained at about 29° C. during the day and 26° C. during the night. Nutrients and water were added on a regular basis and supplemental lighting was provided with overhead metal halide 1000-Watt lamps as necessary. The plants were treated with postemergence foliar applications when they reached the third to fourth true leaf stage. All treatments were applied using a randomized complete block trial design, with 4 replications per treatment.
(§2) Treatments consisted of the compounds as listed in Table 1 for each compound applied alone and in combination. Formulated amounts of quinclorac and fluroxypyr-meptyl ester were placed in 60 milliliter (mL) glass vials and dissolved in a volume of 60 mL of a water solution containing Agri-dex crop oil concentrate in a 1% volume per volume (v/v) ratio. Compound requirements are based upon a 12 mL application volume at a rate of 187 liters per hectare (L/ha). Spray solutions of the mixtures were prepared by adding the stock solutions to the appropriate amount of dilution solution to form 12 mL spray solution with active ingredients in single and two way combinations. Formulated compounds were applied to the plant material with an overhead Mandel track sprayer equipped with 8002E nozzles calibrated to deliver 187 L/ha at a spray height of 18 inches (43 centimeters (cm)) above average plant canopy.
(§3) The treated plants and control plants were placed in a greenhouse as described above and watered by sub-irrigation to prevent wash-off of the test compounds. Treatments were rated at 21 days after application (DAA) as compared to the untreated control plants. Visual weed control was scored on a scale of 0 to 100 percent where 0 corresponds to no injury and 100 corresponds to complete kill.
(§4) All treatment results, both for the single product and mixtures, are an average of 4 replicates evaluated at 21 days after application, and the tank mix interactions are significant at the […] level.
(§5) Colby's equation was used to determine the herbicidal effects expected from the mixtures (Colby, S. R. Calculation of the synergistic and antagonistic response of herbicide combinations. Weeds 1967, 15, 20-22.).
(§6) The following equation was used to calculate the expected activity of mixtures containing two active ingredients, A and B: Expected=A+B−(A×B/100)

For experiment [2], the system named is Chinese sprangletop (Leptochloa chinensis; LEFCH). On the procedure: as §1, §2, §3, §4, §5, §6
Experiment [3] deals with broadleaf signalgrass (Brachiaria platyphylla; BRAPP). On the procedure: as §1, §2, §3, §4, §5, §6
Where [4] appears, read: fluroxypyr-meptyl 50 g ae/ha alone.
The mark [5] stands for this setting: fluroxypyr-meptyl 100 g ae/ha alone.
The mark [6] stands for this setting: fluroxypyr-meptyl 200 g ae/ha alone.

Molecules are shown by their SMILES. Where “and” joins values, the source holds several entries; their conditions need not be identical. Equal entries are not always repeated.

The results in this text go back to patent US8338334B2, “Synergistic herbicidal composition containing fluroxypyr and quinclorac” (Dow AgroSciences, LLC, priority 2010, dated 2012).

Consider `CCCCCCC(C)OC(=O)COc1nc(F)c(Cl)c(N)c1Cl` (centres unmarked) [Fluroxypyr-meptyl], for which the “% Control ECHCG Ob (observed value)” value in experiment [1] (setting [4]) was 0%; in experiment [1] (setting [5]) it was 11%; in experiment [1] (setting [6]), 6%. Also, the “% Control LEFCH Ob (observed value)” value in experiment [2] (setting [5]) is 50%; in experiment [2] (setting [6]), 41% and 42%. For the same molecule, the “% Control BRAPP Ob (observed value)” value is recorded as 5% in experiment [3] (setting [4]), 1% in experiment [3] (setting [5]) and 5% in experiment [3] (setting [6]).
Regarding `O=C(O)c1c(Cl)ccc2cc(Cl)cnc12` [Quinclorac, 3,7-dichloro-8-quinolinecarboxylic acid], the “% Control ECHCG Ob (observed value)” value in experiment [1] (quinclorac 26 g ai/ha alone) came to 5%; in experiment [1] (quinclorac 53 g ai/ha alone) it was 6%; in experiment [1] (quinclorac 110 g ai/ha alone), 31%; in experiment [1] (quinclorac 220 g ai/ha alone), 65%. The “% Control LEFCH Ob (observed value)” value in experiment [2] (quinclorac 26 g ai/ha alone) turned out to be 5%; in experiment [2] (quinclorac 53 g ai/ha alone) it was 10%; in experiment [2] (quinclorac 110 g ai/ha alone), 15%; in experiment [2] (quinclorac 220 g ai/ha alone) it was 11%. In addition, the “% Control BRAPP Ob (observed value)” value in experiment [3] (quinclorac 26 g ai/ha alone) was found to be 5%; in experiment [3] (quinclorac 53 g ai/ha alone) it was 6%; in experiment [3] (quinclorac 110 g ai/ha alone) it was 5%; in experiment [3] (quinclorac 220 g ai/ha alone), 26%.
